In assay [1] the target is CDK2/Cyclin E1 full length (Homo sapiens (Human), UniProt P24941). The assay can be described thus: CDK2/Cyclin E1 full length mobility shift assay. It counts as biochemical.
Assay [2] addresses GSK3β (H350L) (Homo sapiens (Human), UniProt P49841). Particulars: read-out: GSK3β Ki.
Procedure: The assay was initiated with the addition of ATP, following 15 minutes pre-incubation of enzyme and inhibitor at room temperature in the reaction mixture. The reaction was stopped after 30 minutes at room temperature by the addition of 50 μL of 80 mM EDTA.

These results are taken from patent US11014911B2, “CDK2 inhibitors” (Pfizer Inc., priority 2019, dated 2021).

Each structure is given as a SMILES string.

Chain of GSK3β (H350L) (P49841 whole entry, stated change not applied): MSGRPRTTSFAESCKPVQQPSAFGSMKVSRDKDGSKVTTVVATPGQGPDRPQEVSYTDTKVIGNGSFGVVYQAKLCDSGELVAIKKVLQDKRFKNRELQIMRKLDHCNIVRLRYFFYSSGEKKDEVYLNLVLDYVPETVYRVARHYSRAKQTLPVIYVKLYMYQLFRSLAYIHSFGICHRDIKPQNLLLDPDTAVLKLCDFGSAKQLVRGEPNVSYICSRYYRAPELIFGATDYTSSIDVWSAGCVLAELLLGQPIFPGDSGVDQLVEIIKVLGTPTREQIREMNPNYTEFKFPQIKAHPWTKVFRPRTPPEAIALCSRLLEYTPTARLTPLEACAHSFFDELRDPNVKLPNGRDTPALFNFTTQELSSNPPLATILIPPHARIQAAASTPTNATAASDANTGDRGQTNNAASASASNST

For `Cc1ccc(CC(=O)Nc2cc([C@@H]3CC[C@H](OC(=O)N[C@H]4CC[C@H](O)CC4)C3)[nH]n2)nc1` [Example 549, (1S,3R)-3-(3-{[(5-methylpyridin-2-yl)acetyl]amino}-1H-pyrazol-5-yl)cyclopentyl (trans-4-hydroxycyclohexyl)carbamate], the figures for the Ki in assay [1] and in assay [2] were 0.9 nM and 3.24 nM, respectively.
Taken in the same sequence, the figures for `Cc1ncc(CC(=O)Nc2cc([C@@H]3CC[C@H](OC(=O)N[C@H]4CC[C@@H](O)CC4)C3)[nH]n2)s1` [Example 550, (1S,3R)-3-(3-{[(2-methyl-1,3-thiazol-5-yl)acetyl]amino}-1H-pyrazol-5-yl)cyclopentyl (cis-4-hydroxycyclohexyl)carbamate] were 0.36 nM and 3.12 nM.
As for `Cc1ncc(CC(=O)Nc2cc([C@@H]3CC[C@H](OC(=O)N[C@H]4CC[C@H](O)CC4)C3)[nH]n2)s1` [Example 551, (1S,3R)-3-(3-{[(2-methyl-1,3-thiazol-5-yl)acetyl]amino}-1H-pyrazol-5-yl)cyclopentyl (trans-4-hydroxycyclohexyl)carbamate], the Ki in assay [1] was 0.34 nM; in assay [2], 2.94 nM.
In the case of `COc1cc(CC(=O)Nc2cc([C@@H]3CC[C@H](OC(=O)N[C@H]4CC[C@@H](O)CC4)C3)[nH]n2)ccn1` [Example 552, (1S,3R)-3-(3-{[(2-methoxypyridin-4-yl)acetyl]amino}-1H-pyrazol-5-yl)cyclopentyl (cis-4-hydroxycyclohexyl)carbamate], the figures for the Ki in assay [1] and in assay [2] were 0.29 nM and 2.41 nM, respectively.
For `COc1ccc(CC(=O)Nc2cc([C@@H]3CC[C@H](OC(=O)N[C@H]4CC[C@@H](O)CC4)C3)[nH]n2)nc1` [Example 554, (1S,3R)-3-(3-{[(5-methoxypyridin-2-yl)acetyl]amino}-1H-pyrazol-5-yl)cyclopentyl (cis-4-hydroxycyclohexyl)carbamate] the same measures were 1.76 nM and 5.11 nM.
Consider `COc1cc(CC(=O)Nc2cc([C@@H]3CC[C@H](OC(=O)N[C@H]4CC[C@H](O)CC4)C3)[nH]n2)ccn1` [Example 555, (1S,3R)-3-(3-{[(2-methoxypyridin-4-yl)acetyl]amino}-1H-pyrazol-5-yl)cyclopentyl (trans-4-hydroxycyclohexyl)carbamate], for which the Ki was found to be 0.37 nM in assay [1] and 3.58 nM in assay [2].
Regarding `COc1ccc(CC(=O)Nc2cc([C@@H]3CC[C@H](OC(=O)N[C@H]4CC[C@H](O)CC4)C3)[nH]n2)nc1` [Example 557, (1S,3R)-3-(3-{[(5-methoxypyridin-2-yl)acetyl]amino}-1H-pyrazol-5-yl)cyclopentyl (trans-4-hydroxycyclohexyl)carbamate], the Ki in assay [1] was determined as 1.01 nM; in assay [2], 2.6 nM.
Taken in the same sequence, the figures for `C[C@]1(O)CC[C@@H](NC(=O)O[C@H]2CC[C@@H](c3cc(NC(=O)Cc4ccccc4)n[nH]3)C2)CC1` [Example 558, (1S,3R)-3-{3-[(phenylacetyl)amino]-1H-pyrazol-5-yl}cyclopentyl (cis-4-hydroxy-4-methylcyclohexyl)carbamate] were 0.41 nM and 18.6 nM.
Turning to `C[C@]1(O)CC[C@H](NC(=O)O[C@H]2CC[C@@H](c3cc(NC(=O)Cc4ccccc4)n[nH]3)C2)CC1` [Example 559, (1S,3R)-3-{3-[(phenylacetyl)amino]-1H-pyrazol-5-yl}cyclopentyl (trans-4-hydroxy-4-methylcyclohexyl)carbamate], the figures for the Ki in assay [1] and in assay [2] were 1.44 nM and 8.58 nM, respectively.
For `C[C@]1(O)CC[C@@H](NC(=O)O[C@H]2CC[C@@H](c3cc(NC(=O)Cc4ccc(F)cc4)n[nH]3)C2)CC1` [Example 560, (1S,3R)-3-(3-{[(4-fluorophenyl)acetyl]amino}-1H-pyrazol-5-yl)cyclopentyl (cis-4-hydroxy-4-methylcyclohexyl)carbamate] the same measures were 0.6 nM and 9.84 nM.
For the compound `Cc1ncc(CC(=O)Nc2cc([C@@H]3CC[C@H](OC(=O)N[C@H]4CC[C@@](C)(O)CC4)C3)[nH]n2)s1` [Example 562, (1S,3R)-3-(3-{[(2-methyl-1,3-thiazol-5-yl)acetyl]amino}-1H-pyrazol-5-yl)cyclopentyl (cis-4-hydroxy-4-methylcyclohexyl)carbamate], the Ki in assay [1] came to 0.43 nM; in assay [2] it was 4.85 nM.
Taken in the same sequence, the figures for `Cc1ncc(CC(=O)Nc2cc([C@@H]3CC[C@H](OC(=O)N[C@H]4CC[C@](C)(O)CC4)C3)[nH]n2)s1` [Example 563, (1S,3R)-3-(3-{[(2-methyl-1,3-thiazol-5-yl)acetyl]amino}-1H-pyrazol-5-yl)cyclopentyl (trans-4-hydroxy-4-methylcyclohexyl)carbamate] were 1.8 nM and 4.35 nM.
Take `COc1ccc(CC(=O)Nc2cc([C@@H]3CC[C@H](OC(=O)N[C@H]4CC[C@@](C)(O)CC4)C3)[nH]n2)cc1` [Example 564, (1S,3R)-3-(3-{[(4-methoxyphenyl)acetyl]amino}-1H-pyrazol-5-yl)cyclopentyl (cis-4-hydroxy-4-methylcyclohexyl)carbamate]: the Ki in assay [1] is 0.37 nM; in assay [2] it was 10.1 nM.
As for `COc1ccc(CC(=O)Nc2cc([C@@H]3CC[C@H](OC(=O)N[C@H]4CC[C@](C)(O)CC4)C3)[nH]n2)cc1` [Example 565, (1S,3R)-3-(3-{[(4-methoxyphenyl)acetyl]amino}-1H-pyrazol-5-yl)cyclopentyl (trans-4-hydroxy-4-methylcyclohexyl)carbamate], the Ki is 1.24 nM in assay [1] and 4.07 nM in assay [2].
Regarding `COc1ccc(CC(=O)Nc2cc([C@H]3CC[C@@H](OC(=O)N[C@H]4CC[C@@](C)(O)CC4)C3)[nH]n2)cc1` [Example 566, (1R,3S)-3-(3-{[(4-methoxyphenyl)acetyl]amino}-1H-pyrazol-5-yl)cyclopentyl (cis-4-hydroxy-4-methylcyclohexyl)carbamate], the Ki in assay [1] was determined as 0.79 nM; in assay [2], 37.6 nM.
On to `COc1cc(CC(=O)Nc2cc([C@@H]3CC[C@H](OC(=O)N[C@H]4CC[C@@](C)(O)CC4)C3)[nH]n2)ccn1` [Example 568, (1S,3R)-3-(3-{[(2-methoxypyridin-4-yl)acetyl]amino}-1H-pyrazol-5-yl)cyclopentyl (cis-4-hydroxy-4-methylcyclohexyl)carbamate], for which the figures for the Ki in assay [1] and in assay [2] were 0.41 nM and 5.12 nM, respectively.
As for `COc1cc(CC(=O)Nc2cc([C@@H]3CC[C@H](OC(=O)N[C@H]4CC[C@](C)(O)CC4)C3)[nH]n2)ccn1` [Example 569, (1S,3R)-3-(3-{[(2-methoxypyridin-4-yl)acetyl]amino}-1H-pyrazol-5-yl)cyclopentyl (trans-4-hydroxy-4-methylcyclohexyl)carbamate], the Ki in assay [1] turned out to be 1.25 nM; in assay [2], 4.31 nM.
Taken in the same sequence, the figures for `COc1ccc(CC(=O)Nc2cc([C@@H]3CC[C@H](OC(=O)N[C@H]4CC[C@@](C)(O)CC4)C3)[nH]n2)cn1` [Example 570, (1S,3R)-3-(3-{[(6-methoxypyridin-3-yl)acetyl]amino}-1H-pyrazol-5-yl)cyclopentyl (cis-4-hydroxy-4-methylcyclohexyl)carbamate] were 0.35 nM and 3.29 nM.
Regarding `COc1ccc(CC(=O)Nc2cc([C@@H]3CC[C@H](OC(=O)N[C@H]4CC[C@](C)(O)CC4)C3)[nH]n2)cn1` [Example 571, (1S,3R)-3-(3-{[(6-methoxypyridin-3-yl)acetyl]amino}-1H-pyrazol-5-yl)cyclopentyl (trans-4-hydroxy-4-methylcyclohexyl)carbamate], the Ki was found to be 1.08 nM in assay [1] and 2.28 nM in assay [2].
